Experimental data: ChEMBL document CHEMBL6178002, “Identification of a RANKL/TNF-α Dual-Inhibitor as a Potential Disease-Modifying Agent for the Treatment of Knee Osteoarthritis” (J Med Chem, 2025)
Activity calls are given as the source filed them. No cut-off for these calls is given here.

Assays:
Rattus norvegicus [1] = species: Rattus norvegicus; test: Anti-inflammatory activity in male Sprague-Dawley rat model of ACLT-induced osteoarthritis assessed as reduction in articular cartilage erosion at 50 to 100 ug, IART treated weekly once for 8 weeks by H and E/S-O/FG staining based analysis; type: functional, organism-based; conditions: dose 50-100 µg
Bone marrow macrophage [2] = test: Inhibition of RANKL/M-CSF-induced osteoclastogenesis in bone marrow macrophage cells (unknown origin) assessed as decrease in c-Fos level incubated for 48 hrs by Western blot analysis; type: functional, cell-based; conditions: dose <= 2.5 µM
Primary chondrocyte [3] = test: Anti-inflammatory activity in IL-1beta-treated C57/BL6 mouse primary chondrocytes assessed as increase in collagen II mRNA level at 10 uM incubated for 24 hrs by RT-qPCR analysis; type: functional, cell-based
RAW264.7 [4] = test: Inhibition of NFkappaB activation in mouse RAW264.7 cells assessed as reduction in TNF-alpha-induced NF-kappaB p65 phosphorylation at 10 uM preincubated for 12 hrs followed by TNF-alpha addition measured after 2 hrs by immunofluorescence based analysis; type: cell-based; conditions: time 14.0 hrs
Rattus norvegicus [5] = species: Rattus norvegicus; test: Anti-inflammatory activity in male Sprague-Dawley rat model of ACLT-induced osteoarthritis assessed as increase in BV/TV level at 50 to 100 ug, IART treated weekly once for 8 weeks by micro-CT analysis; type: functional, organism-based; conditions: dose 50-100 µg
Bone marrow cell = test: Inhibition of RANKL/M-CSF-induced osteoclastogenesis in male C57/BL6 mouse bone marrow cells at 1 uM by TRAP staining based analysis; type: functional; conditions: time 1-7 day
Bone marrow macrophage [6] = test: Inhibition of RANKL/M-CSF-induced osteoclastogenesis in bone marrow macrophage cells (unknown origin) assessed as decrease in NFATC1 level incubated for 48 hrs by Western blot analysis; type: functional, cell-based; conditions: dose <= 2.5 µM
Bone marrow macrophage [7] = test: Inhibition of RANKL/M-CSF-induced osteoclastogenesis in bone marrow macrophage cells (unknown origin) assessed as decrease in TRAP level incubated for 48 hrs by Western blot analysis; type: functional, cell-based; conditions: dose <= 2.5 µM
Bone marrow macrophage [8] = test: Inhibition of RANKL/M-CSF-induced osteoclastogenesis in bone marrow macrophage cells (unknown origin) assessed as decrease in cathepsin K mRNA level at 1 uM by RT-qPCR analysis; type: functional, cell-based; conditions: time <= 5.0 day
Rattus norvegicus [9] = species: Rattus norvegicus; test: Anti-inflammatory activity in male Sprague-Dawley rat model of ACLT-induced osteoarthritis assessed as increase in BMD level at 50 to 100 ug, IART treated weekly once for 8 weeks by micro-CT analysis; type: functional, organism-based; conditions: dose 50-100 µg
[10] = Half life in male Sprague-Dawley rat at 10 mg/kg, po measured for 0.25 to 24 hrs; type: ADME, organism-based; conditions: in vivo, time 0.25-24 hrs
Bone marrow macrophage [11] = test: Inhibition of RANKL/M-CSF-induced osteoclastogenesis in bone marrow macrophage cells (unknown origin) assessed as decrease in cathepsin K level at 1 uM by Western blot analysis; type: functional, cell-based; conditions: time <= 5.0 day
[12] = target: T1, Tumor necrosis factor ligand superfamily member 11 (Homo sapiens, UniProt O14788); test: Binding affinity to CM5 chip-immobilized human RANKL assessed as dissociation constant by SPR analysis
T1 sequence (O14788 whole entry): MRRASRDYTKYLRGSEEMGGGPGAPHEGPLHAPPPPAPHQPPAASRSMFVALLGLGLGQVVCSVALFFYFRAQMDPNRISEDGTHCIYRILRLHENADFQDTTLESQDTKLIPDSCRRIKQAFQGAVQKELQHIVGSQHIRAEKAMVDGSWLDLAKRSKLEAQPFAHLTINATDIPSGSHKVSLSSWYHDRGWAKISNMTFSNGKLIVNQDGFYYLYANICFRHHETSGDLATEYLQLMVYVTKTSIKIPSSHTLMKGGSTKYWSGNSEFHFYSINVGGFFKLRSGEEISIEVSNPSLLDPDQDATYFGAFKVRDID

[13] = Inhibition of RANKL/M-CSF-induced osteoclastogenesis in male C57/BL6 mouse bone marrow cells at 1 uM incubated for 5 to 7 days by TRAP staining based analysis relative to control; type: functional; conditions: C57/BL6, Bone marrow cell, time 5-7 day
[14] = Inhibition of RANKL/M-CSF-induced osteoclastogenesis in male C57/BL6 mouse bone marrow cells at 0.1 uM incubated for 5 to 7 days by TRAP staining based analysis relative to control; type: functional; conditions: C57/BL6, Bone marrow cell, time 5-7 day
[15] = AUC (0 to t) in male Sprague-Dawley rat at 10 mg/kg, po measured for 0.25 to 24 hrs; type: ADME, organism-based; conditions: in vivo, time 0.25-24 hrs
Rattus norvegicus [16] = species: Rattus norvegicus; test: Anti-inflammatory activity in male Sprague-Dawley rat model of ACLT-induced osteoarthritis assessed as reduction in surface temperature in arthritic joint at 50 to 100 ug, IART treated weekly once for 8 weeks by infrared imaging analysis; type: functional, organism-based; conditions: dose 50-100 µg
Bone marrow macrophage [17] = test: Inhibition of RANKL/M-CSF-induced osteoclastogenesis in bone marrow macrophage cells (unknown origin) assessed as decrease in c-Fos mRNA level at 1 uM by RT-qPCR analysis; type: functional, cell-based; conditions: time <= 5.0 day
RAW264.7 [18] = test: Inhibition of NFkappaB activation in mouse RAW264.7 cells assessed as reduction in TNF-alpha-induced NF-kappaB p65 phosphorylation at 1 to 10 uM preincubated for 12 hrs followed by LPS/TNF-alpha addition measured after 2 hrs by Western blot analysis; type: cell-based; conditions: dose 1-10 µM, time 14.0 hrs
RAW264.7 [19] = test: Anti-inflammatory activity in LPS-stimulated mouse RAW264.7 cells assessed as decrease in TNF-alpha level at 10 uM preincubated for 24 hrs followed by LPS addition measured after 2 hrs by RT-qPCR analysis; type: functional, cell-based; conditions: time 26.0 hrs
Primary chondrocyte [20] = test: Anti-inflammatory activity in IL-1beta-treated C57/BL6 mouse primary chondrocytes assessed as decrease in MMP-9 mRNA level at 10 uM incubated for 24 hrs by RT-qPCR analysis; type: functional, cell-based
Bone marrow macrophage [21] = test: Inhibition of RANKL/M-CSF-induced osteoclastogenesis in bone marrow macrophage cells (unknown origin) assessed as decrease in MMP-9 level incubated for 48 hrs by Western blot analysis; type: functional, cell-based; conditions: dose <= 2.5 µM
RAW264.7 [22] = test: Anti-inflammatory activity in LPS-stimulated mouse RAW264.7 cells assessed as decrease in IL-18 level at 10 uM preincubated for 24 hrs followed by LPS addition measured after 2 hrs by RT-qPCR analysis; type: functional, cell-based; conditions: time 26.0 hrs
Bone marrow macrophage [23] = test: Inhibition of RANKL/M-CSF-induced osteoclastogenesis in bone marrow macrophage cells (unknown origin) assessed as decrease in NFATC1 level at 1 uM by Western blot analysis; type: functional, cell-based; conditions: time <= 5.0 day
Rattus norvegicus [24] = species: Rattus norvegicus; test: Anti-inflammatory activity in male Sprague-Dawley rat model of ACLT-induced osteoarthritis assessed as increase in Tb.N level at 50 to 100 ug, IART treated weekly once for 8 weeks by micro-CT analysis; type: functional, organism-based; conditions: dose 50-100 µg
Tumor necrosis factor = Tumor necrosis factor (Homo sapiens, UniProt P01375); test: Binding affinity to CM5 chip-immobilized human TNF-alpha assessed as dissociation constant by SPR analysis
Tumor necrosis factor, sequence (P01375 whole entry): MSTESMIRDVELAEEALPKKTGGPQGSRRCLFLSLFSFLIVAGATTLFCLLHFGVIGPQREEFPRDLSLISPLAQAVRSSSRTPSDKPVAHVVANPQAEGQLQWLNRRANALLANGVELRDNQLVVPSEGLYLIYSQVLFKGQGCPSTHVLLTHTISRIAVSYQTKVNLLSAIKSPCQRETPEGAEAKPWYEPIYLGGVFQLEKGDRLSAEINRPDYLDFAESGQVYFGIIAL

Bone marrow macrophage [25] = test: Inhibition of RANKL/M-CSF-induced osteoclastogenesis in bone marrow macrophage cells (unknown origin) assessed as decrease in cathepsin K mRNA level incubated for 48 hrs by RT-qPCR analysis; type: functional, cell-based; conditions: dose <= 5.0 µM
Rattus norvegicus [26] = species: Rattus norvegicus; test: Anti-inflammatory activity in male Sprague-Dawley rat model of ACLT-induced osteoarthritis assessed as reduction in OARSI score at 50 to 100 ug, IART treated weekly once for 8 weeks; type: functional, organism-based; conditions: dose 50-100 µg
Bone marrow macrophage [27] = test: Inhibition of RANKL/M-CSF-induced osteoclastogenesis in bone marrow macrophage cells (unknown origin) assessed as decrease in NFATC1 mRNA level at 1 uM by RT-qPCR analysis; type: functional, cell-based; conditions: time <= 5.0 day

For `Cc1cccc(C)c1NC(=O)[C@@H]1Cc2c([nH]c3ccccc23)C2(CN(c3ccccc3)C2)N1`, the Activity (Rattus norvegicus [1]) was “Active”, the inhibition (Bone marrow macrophage [2]) was “Dose-dependent-effect” and the Activity (Primary chondrocyte [3]) was “Active”. The inhibition (RAW264.7 [4]) was “Active”, the Activity (Rattus norvegicus [5]) was “Active” and the inhibition (Bone marrow cell) was “Time-dependent-effect”. The inhibition (Bone marrow macrophage [6]) was “Dose-dependent-effect”, the inhibition (Bone marrow macrophage [7]) was “Dose-dependent-effect” and the inhibition (Bone marrow macrophage [8]) was “Time-dependent-effect”. The Activity (Rattus norvegicus [9]) was “Active”, the half-life [10] was 5.07 h and the inhibition (Bone marrow macrophage [11]) was “Time-dependent-effect”. It also gave a Kd [12] of 3.98 µM, an inhibition at 1 µM [13] of 98.6% and an inhibition at 0.1 µM [14] of 59.7%. The AUC(0-t) [15] was 1620 ng·h/mL, the Activity (Rattus norvegicus [16]) was “Active” and the inhibition (Bone marrow macrophage [17]) was “Time-dependent-effect”. The inhibition (RAW264.7 [18]) was “Active”, the Activity (RAW264.7 [19]) was “Active” and the Activity (Primary chondrocyte [20]) was “Active”. The inhibition (Bone marrow macrophage [21]) was “Dose-dependent-effect”, the Activity (RAW264.7 [22]) was “Active” and the inhibition (Bone marrow macrophage [23]) was “Time-dependent-effect”. The Activity (Rattus norvegicus [24]) was “Active”, the Kd (Tumor necrosis factor) was 18.6 µM and the inhibition (Bone marrow macrophage [25]) was “Dose-dependent-effect”. For the same molecule, the Activity (Rattus norvegicus [26]) was “Active” and the inhibition (Bone marrow macrophage [27]) was “Time-dependent-effect”.
